row,melting point [°C],Compound
1,255 to 256,"NS(=O)(=O)c1ccc(CNC(=O)CCc2oc(-n3cnc4ccccc43)nc2-c2ccc(Cl)cc2)cc1 [Example 151, N-[4-(aminosulfonyl)benzyl]-3-[2-(1H-benzimidazol-1-yl)-4-(4-chlorophenyl)-5-oxazolyl]propionamide]"
2,294 to 295,"O=C(CCc1sc(-c2ccccc2)nc1-c1ccc(Cl)cc1)Nc1ccc(C(=O)O)cc1 [Example 64, 4-({3-[4-(4-chlorophenyl)-2-phenyl-5-thiazolyl]propanoyl}amino)benzoic acid]"
3,232 to 233,"CC(C)c1ccc(NC(=O)CCc2oc(-n3cnc4ccccc43)nc2-c2ccc(Cl)cc2)cc1 [Example 126, 3-[2-(1H-benzimidazol-1-yl)-4-(4-chlorophenyl)-5-oxazolyl]-N-(4-isopropylphenyl)propionamide]"
4,194 to 195,"O=C(CCc1oc(-n2cnc3ccccc32)nc1-c1ccc(Cl)cc1)NCc1ccc(C(F)(F)F)cc1 [Example 138, 3-[2-(1H-benzimidazol-1-yl)-4-(4-chlorophenyl)-5-oxazolyl]-N-[4-(trifluoromethyl)benzyl]propionamide]"
5,158 to 159,CCOP(=O)(Cc1ccc(NC(=O)CCc2oc(-n3ccnc3C)nc2-c2ccc(Cl)cc2)cc1)OCC
6,212 to 214,"N#CCc1ccc(NC(=O)CCc2oc(-n3cnc4ccccc43)nc2-c2ccc(Cl)cc2)cc1 [Example 89, 3-[2-(1H-benzimidazol-1-yl)-4-(4-chlorophenyl)-5-oxazolyl]-N-[4-(cyanomethyl)phenyl]propionamide]"
7,206 to 207,"O=C(CCc1oc(-n2cnc3ccccc32)nc1-c1ccc(Cl)cc1)Nc1cccc(CO)c1 [Example 108, 3-[2-(1H-benzimidazol-1-yl)-4-(4-chlorophenyl)-5-oxazolyl]-N-[3-(hydroxymethyl)phenyl]propionamide]"
8,193 to 194,"COc1ccc(OC)c(CNC(=O)CCc2oc(-n3cnc4ccccc43)nc2-c2ccc(Cl)cc2)c1 [Example 179, 3-[2-(1H-benzimidazol-1-yl)-4-(4-chlorophenyl)-5-oxazolyl]-N-(2,5-dimethoxybenzyl)propionamide]"
9,191 to 192,CCOP(=O)(OCC)C(OC)c1ccc(NC(=O)CCc2oc(-n3cnc4ccccc43)nc2-c2ccc(Cl)cc2)cc1 (stereo not drawn)
10,265 to 266,"NC(=O)CCc1oc(-n2cnc3ccccc32)nc1-c1ccc(Cl)cc1 [Example 8, 3-[2-(1H-benzimidazol-1-yl)-4-(4-chlorophenyl)-5-oxazolyl]propionamide]"
11,190 to 191,"Cc1ccc(CNC(=O)CCCc2oc(-n3cnc4ccccc43)nc2-c2ccc(Cl)cc2)cc1 [Example 196, 4-[2-(1H-benzimidazol-1-yl)-4-(4-chlorophenyl)-5-oxazolyl]-N-(4-methylbenzyl)butanamide]"
12,207 to 208,"CN(C)C(=O)Cc1ccc(NC(=O)CCc2oc(-n3cnc4ccccc43)nc2-c2ccc(Cl)cc2)cc1 [Example 142, 2-[4-({3-[2-(1H-benzimidazol-1-yl)-4-(4-chlorophenyl)-5-oxazolyl]propanoyl}amino)phenyl]-N,N-dimethylacetamide]"
13,155 to 156,"O=C(CCc1oc(-n2cnc3ccccc32)nc1-c1ccc(Cl)cc1)NCc1cc(F)cc(F)c1 [Example 164, 3-[2-(1H-benzimidazol-1-yl)-4-(4-chlorophenyl)-5-oxazolyl]-N-(3,5-difluorobenzyl)propionamide]"
14,198 to 200,"O=C(CCc1oc(-n2cnc3ccccc32)nc1-c1ccc(Cl)cc1)NCc1cc(F)cc(C(F)(F)F)c1 [Example 163, 3-[2-(1H-benzimidazol-1-yl)-4-(4-chlorophenyl)-5-oxazolyl]-N-[3-fluoro-5-(trifluoromethyl)benzyl]propionamide]"
15,130 to 131,CCOP(=O)(CCCNC(=O)CCc1oc(-n2cnc3ccccc32)nc1-c1ccc(Cl)cc1)OCC
16,275 to 276,"O=C(/C=C/c1oc(-c2ccccc2)nc1-c1ccc(Cl)cc1)Nc1ccc(C(=O)O)cc1 [Example 65, 4-({(2E)-3-[4-(4-chlorophenyl)-2-phenyl-5-oxazolyl]propenoyl}amino)benzoic acid]"
17,182 to 183,"O=C(CCc1oc(-n2cnc3ccccc32)nc1-c1ccc(Cl)cc1)N1CCC(O)CC1 [Example 192, 1-{3-[2-(1H-benzimidazol-1-yl)-4-(4-chlorophenyl)-5-oxazolyl]propanoyl}-4-piperidinol]"
18,198 to 200,"COC(=O)c1ccc(NC(=O)CCc2oc(-c3ccccc3)nc2-c2ccc(Cl)cc2)cc1 [Example 42, 3-[4-(4-chlorophenyl)-2-phenyl-5-oxazolyl]-N-[4-(methoxycarbonyl)phenyl]propionamide]"
19,258 to 259,"COc1ccccc1NC(=O)Cc1ccc(NC(=O)CCc2oc(-n3cnc4ccccc43)nc2-c2ccc(Cl)cc2)cc1 [Example 139, 2-[4-(N-{3-[2-(1H-benzimidazol-1-yl)-4-(4-chlorophenyl)-5-oxazolyl]propanoyl}amino)phenyl]-N-(2-methoxyphenyl)acetamide]"
20,143 to 144,CCOP(=O)(Cc1ccc(NC(=O)CCc2oc(-n3cnc4ccccc43)nc2-c2ccc(OC)cc2)cc1)OCC
21,141 to 142,"CN(CCS(C)(=O)=O)C(=O)CCc1oc(-n2cnc3ccccc32)nc1-c1ccc(Cl)cc1 [Example 303, 3-[2-(1H-benzoimidazol-1-yl)-4-(4-chlorophenyl)-5-oxazolyl]-N-[2-(methylsulfonyl)ethyl]-N-methylpropanamide]"

row,melting point [°C],Compound
1,202 to 203,"O=C(CCc1oc(-n2cnc3ccccc32)nc1-c1ccc(Cl)cc1)NCc1ccccc1F [Example 137, 3-[2-(1H-benzimidazol-1-yl)-4-(4-chlorophenyl)-5-oxazolyl]-N-(2-fluorobenzyl)propionamide]"
2,183 to 184,"O=C(CCc1oc(-n2cnc3ccccc32)nc1-c1ccc(Cl)cc1)NCc1cc(Br)ccc1F [Example 167, 3-[2-(1H-benzimidazol-1-yl)-4-(4-chlorophenyl)-5-oxazolyl]-N-(5-bromo-2-fluorobenzyl)propionamide]"
3,159 to 160,"O=C(CCc1oc(-n2cnc3ccccc32)nc1-c1ccc(Cl)cc1)Nc1ccccc1CO [Example 109, 3-[2-(1H-benzimidazol-1-yl)-4-(4-chlorophenyl)-5-oxazolyl]-N-[2-(hydroxymethyl)phenyl]propionamide]"
4,210 to 212,"Cc1ccc(CNC(=O)CCc2oc(-n3cnc4ccccc43)nc2-c2ccc(Cl)cc2)cc1 [Example 146, 3-[2-(1H-benzimidazol-1-yl)-4-(4-chlorophenyl)-5-oxazolyl]-N-(4-methylbenzyl)propionamide]"
5,133 to 136,CCOP(=O)(Cc1ccccc1NC(=O)CCCc1oc(-n2cnc3ccccc32)nc1-c1ccc(Cl)cc1)OCC
6,190 to 191,"O=C(CCc1oc(-n2cnc3ccccc32)nc1-c1ccc(Cl)cc1)NCc1ccc(Cl)cc1 [Example 152, 3-[2-(1H-benzimidazol-1-yl)-4-(4-chlorophenyl)-5-oxazolyl]-N-(4-chlorobenzyl)propionamide]"
7,146 to 147,CCOP(=O)(Cc1ccc(NC(=O)CCc2oc(Sc3ccccn3)nc2-c2ccc(Cl)cc2)cc1)OCC
8,204 to 206,CCOP(=O)(Cc1ccc(NC(=O)/C=C/c2oc(-c3ccccc3)nc2-c2ccc(Cl)cc2)cc1)OCC
9,210 to 211,"COc1ccccc1CNC(=O)CCc1oc(-n2cnc3ccccc32)nc1-c1ccc(Cl)cc1 [Example 133, 3-[2-(1H-benzimidazol-1-yl)-4-(4-chlorophenyl)-5-oxazolyl]-N-(2-methoxybenzyl)propionamide]"
10,214 to 216,"O=C(CCc1oc(-n2cnc3ccccc32)nc1-c1ccc(Cl)cc1)NCc1ccc(-c2ccccc2)cc1 [Example 153, 3-[2-(1H-benzimidazol-1-yl)-4-(4-chlorophenyl)-5-oxazolyl]-N-(4-phenylbenzyl)propionamide]"
11,104 to 105,"O=C(CCCc1oc(-c2ccccc2)nc1-c1ccc(Cl)cc1)N1CCN(c2ccccc2)CC1 [Example 51, 1-{4-[4-(4-chlorophenyl)-2-phenyl-5-oxazolyl]butanoyl}-4-phenylpiperazine]"
12,154 to 155,CCOP(=O)(Cc1ccc(NC(=O)Cc2sc(-n3cnc4ccccc43)nc2-c2ccc(Cl)cc2)cc1)OCC
13,268 to 269,"NC(=O)c1ccc(NC(=O)CCc2oc(-c3ccccc3)nc2-c2ccc(Cl)cc2)cc1 [Example 66, 4-({3-[4-(4-chlorophenyl)-2-phenyl-5-oxazolyl]propanoyl}amino)benzamide]"
14,182 to 184,"CN(Cc1ccc(NC(=O)CCc2oc(-n3cnc4ccccc43)nc2-c2ccc(Cl)cc2)cc1)C1CCOCC1 [Example 87, 3-[2-(1H-benzimidazol-1-yl)-4-(4-chlorophenyl)-5-oxazolyl)-N-(4-{[N-methyl-N-(4-tetrahydropyranyl)amino]methyl}phenyl)propionamide]"
15,155 to 156,CCOP(=O)(Cc1ccc(NC(=O)CCc2oc(C)nc2-c2ccc(Cl)cc2)cc1)OCC
16,118 to 119,CCOP(=O)(Cc1ccc(NC(=O)CCCc2oc(-n3cnc4ccccc43)nc2-c2ccc(Cl)cc2)c(C)c1)OCC
17,142 to 143,"NC(=O)CCc1oc(C2CCCCC2)nc1-c1ccc(Cl)cc1 [Example 17, 3-[4-(4-chlorophenyl)-2-cyclohexyl-5-oxazolyl]propionamide]"
18,164 to 165,COP(=O)(Cc1ccc(NC(=O)CCCCCc2sc(-c3ccccc3)nc2-c2ccc(Cl)cc2)cc1)OC
19,95 to 96,CCOP(=O)(Cc1ccc(NC(=O)CCc2oc(-n3cnc4ccccc43)nc2-c2ccc(F)cc2)cc1)OCC
20,194 to 195,"COc1ccccc1NC(=O)CCc1oc(-n2cnc3ccccc32)nc1-c1ccc(Cl)cc1 [Example 115, 3-[2-(1H-benzimidazol-1-yl)-4-(4-chlorophenyl)-5-oxazolyl]-N-(2-methoxyphenyl)propionamide]"
21,174 to 176,"O=C(CCc1oc(-n2cnc3ccccc32)nc1-c1ccc(Cl)cc1)N1CCN(c2ccccn2)CC1 [Example 93, 1-{3-[2-(1H-benzimidazol-1-yl)-4-(4-chlorophenyl)-5-oxazolyl]propanoyl}-4-(2-pyridinyl)piperazine]"
